Reference: US20060135485A1, “Microbicidal compositions and their use” (priority 2002, published 2006)

Experiments:
Format in all cases: cell-based
[1] = system: Pseudomonas aeruginosa ATCC 9027, Candida albicans ATCC 10231, Aspergillus niger ATCC 16404; assay: Preservation loading test in styrene butadiene emulsions; conditions: sole active component, neutral conditions, typical polymer emulsion; bacteria, yeasts and moulds
Procedure: Styrene Butadiene Emulsions were inoculated with 1×10^6 of the test culture, stored for 7 days at 25° C. and then a semi-quantitative determination of colony forming units was carried out. This loading test was carried out with a representative bacteria (Pseudomonas aeruginosa ATCC 9027), a representative yeast (Candida albicans ATCC 10231) and a representative mould (Aspergillus niger ATCC 16404) over consecutive weeks until the product has been subjected to (at least) three separate loadings of each culture type. The concentration of preserving agent at which no recovery of the test organisms was observed is the end point of the test and adequacy of preservation is assumed.

[2] = system: Aspergillus niger (ASN) ATCC 16404; assay: MIC culture tube dilution test; conditions: pH 7.2±0.2, 72 hour incubation at 36° C.
Procedure: (§1) Microbiocides and microbiocidal properties were determined experimentally. Very well suited test methods are described in detail in the German Society for Hygiene and Microbiology (GGHM) for the examination of disinfectants. In order to determine the MIC, culture tube dilution tests were carried out according to the “regulations for the examination and evaluation of chemical disinfection procedures (Edition 1.1.81, procedures slightly modified)” using a […]-soya bean meal peptide medium. The dilution was carried out with water of standardised hardness without further agents such as surfactants. The adjustment of the pH values to 7.2±0.2 was carried out with 0.1 mol/NaOH or 0.1 mol/HCl. The gradation of test concentrations was made according to the concentration steps proposed by the GGHM. The evaluation was carried out after a 72 hour incubation at 36° C. [table] One part polyvinylamine, consisting of 95 wt % vinyl units and 5 wt % vinylformamide units with a K-value of 90 were mixed with 4.2 parts cyclohexyldiazeniumdioxy potassium. […] The effectiveness was determined according to the abovementioned methods. MIC stated here gives the minimal effective concentration, in which a.i. (active ingredient) means the active component.

[3] = system: Candida albicans (CA) ATCC 10231; assay: MIC culture tube dilution test; conditions: pH 7.2±0.2, 72 hour incubation at 36° C.
Procedure: as §1

[4] = system: Escherichia coli (EC) ATCC 11229; assay: MIC culture tube dilution test; conditions: pH 7.2±0.2, 72 hour incubation at 36° C.
Procedure: as §1

[5] = system: Proteus mirabilis (PRM) ATCC 14153; assay: MIC culture tube dilution test; conditions: pH 7.2±0.2, 72 hour incubation at 36° C.
Procedure: as §1

[6] = system: Pseudomonas aeruginosa (PSA) ATCC 15442; assay: MIC culture tube dilution test; conditions: pH 7.2±0.2, 72 hour incubation at 36° C.
Procedure: as §1

[7] = system: Staphylococcus aureus (STA) ATCC 6538; assay: MIC culture tube dilution test; conditions: pH 7.2±0.2, 72 hour incubation at 36° C.
Procedure: as §1

O=NN(O)C1CCCCC1.[K] [KHDO, potassium salt of N′-hydroxy-N-cyclohexyl-diazenium oxide]
Killing of spoilage microorganisms (in words) [1]: able not only to inhibit but actively kill a representative range of spoilage microorganisms | MIC Cyclohexyldiazeniumdioxy potassium [ppm a.i.] B [2]: 175 ppm a.i. | MIC Cyclohexyldiazeniumdioxy potassium [ppm a.i.] B [3]: 350 ppm a.i. | MIC Cyclohexyldiazeniumdioxy potassium [ppm a.i.] B [4]: 350 ppm a.i. | MIC Cyclohexyldiazeniumdioxy potassium [ppm a.i.] B [5]: 750 ppm a.i. | MIC Cyclohexyldiazeniumdioxy potassium [ppm a.i.] B [6]: 3000 ppm a.i. | MIC Cyclohexyldiazeniumdioxy potassium [ppm a.i.] B [7]: 750 ppm a.i.
